Patent US8106055B2, “Substituted amide compounds” (Gruenenthal GmbH, priority 2007, dated 2012)

Legend:
[1] = target: T1, human bradykinin 1 receptor (B1R) (Homo sapiens, UniProt P46663); assay: Functional investigation on the human bradykinin 1 receptor (B1R), Ca2+ FLIPR assay in CHO K1 hB1R cells; type: cell-based; conditions: test substance 10 μM, Ca2+ FLIPR, CHO K1 hB1R cells; for inhibition at 10 µM: CHO-K1, B1R antagonism human, read-out: B1R Ant. h [10 μM] % Inhibition
T1 construct: expressed in transfected cells; host or cells: CHO K1 cells
T1 sequence (P46663 1-353): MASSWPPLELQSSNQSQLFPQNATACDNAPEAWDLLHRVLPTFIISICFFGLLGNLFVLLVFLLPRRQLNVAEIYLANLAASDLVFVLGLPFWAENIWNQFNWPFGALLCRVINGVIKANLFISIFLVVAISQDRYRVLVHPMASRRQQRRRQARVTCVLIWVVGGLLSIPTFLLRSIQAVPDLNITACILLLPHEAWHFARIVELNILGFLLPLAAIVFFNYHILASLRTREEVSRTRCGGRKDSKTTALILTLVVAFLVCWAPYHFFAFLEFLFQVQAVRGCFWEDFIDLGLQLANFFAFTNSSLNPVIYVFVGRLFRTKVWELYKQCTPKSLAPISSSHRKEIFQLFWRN
Outline: (§1)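 Fluo-4 Ca2+ readout, peak fluorescence. Stable CHO K1 transfectants; compound pre-incubated 10-20 min, then EC80 agonist—Lys-Des-Arg9-BK for hB1R, Des-Arg9-BK for rB1R. % inhibition vs maximal inhibition; IC50 from multiple concentrations, duplicate/triplicate, ≥2 independent runs.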

human μ opiate receptor = target: T2, human μ opiate receptor (Homo sapiens, UniProt P35372); assay: Affinity for the human μ opiate receptor ([3H]-naloxone displacement, CHO-K1 receptor membrane preparation, SPA); type: binding; conditions: 1.5 h, Table 3, to be read in the same way as Table 1; test concentration 1 μM; read-out: μ
T2 construct: purchased PerkinElmer Life Sciences, Zaventem, Belgium RB-HOM; host or cells: CHO-K1 cells (membrane preparation)
Outline: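 Test compounds, 1 nmol/l [3H]-naloxone and CHO-K1 membranes bearing the human μ opiate receptor are combined with WGA-SPA beads. After 90 minutes at room temperature, plates are centrifuged and radioactivity counted. Specific-binding inhibition at 1 μmol/l is given in percent.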

[2] = target: T3, bradykinin 1 receptor (B1R) of the rat (Rattus norvegicus, UniProt P97583); assay: Functional investigation on the rat bradykinin 1 receptor (B1R), Ca2+ FLIPR assay in CHO K1 rB1R cells; type: cell-based; conditions: test substance 10 μM, Ca2+ FLIPR, CHO K1 rB1R cells; for inhibition at 10 µM: CHO-K1, B1R antagonism rat, read-out: B1R Ant. r [10 μM] % Inhibition
T3 construct: expressed in transfected cells; host or cells: CHO K1 cells
T3 sequence (P97583 1-337): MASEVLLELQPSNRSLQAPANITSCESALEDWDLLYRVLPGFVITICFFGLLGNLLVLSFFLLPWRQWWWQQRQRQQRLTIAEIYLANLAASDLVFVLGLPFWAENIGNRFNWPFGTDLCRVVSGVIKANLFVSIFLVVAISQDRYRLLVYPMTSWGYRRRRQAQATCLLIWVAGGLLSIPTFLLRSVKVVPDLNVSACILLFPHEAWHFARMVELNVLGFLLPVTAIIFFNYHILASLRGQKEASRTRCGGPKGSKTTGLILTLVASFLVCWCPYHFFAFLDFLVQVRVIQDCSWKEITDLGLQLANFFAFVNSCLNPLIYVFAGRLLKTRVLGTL
Outline: as §1

T2 sequence (P35372 whole entry): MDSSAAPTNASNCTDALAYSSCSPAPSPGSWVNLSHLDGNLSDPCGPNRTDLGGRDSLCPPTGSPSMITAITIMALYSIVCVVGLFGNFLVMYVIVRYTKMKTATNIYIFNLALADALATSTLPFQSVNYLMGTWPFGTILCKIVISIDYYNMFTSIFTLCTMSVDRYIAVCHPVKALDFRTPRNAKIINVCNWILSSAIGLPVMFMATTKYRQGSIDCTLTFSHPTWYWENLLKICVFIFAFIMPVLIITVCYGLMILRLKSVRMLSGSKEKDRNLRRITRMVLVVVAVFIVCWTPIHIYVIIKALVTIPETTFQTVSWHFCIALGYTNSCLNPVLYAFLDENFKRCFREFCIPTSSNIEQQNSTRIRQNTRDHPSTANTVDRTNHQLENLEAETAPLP

Structure (SMILES)	inhibition at 10 µM [1]	inhibition at 1 µM (human μ opiate receptor)	inhibition at 10 µM [2]	B1R Ant. h [10 μM] % Inhibition ([1]; B1R antagonism human)	B1R Ant. r [10 μM] % Inhibition ([2]; B1R antagonism rat)
O=C(COC1CCN(S(=O)(=O)c2c(Cl)cc(Cl)cc2Cl)C1)NC1CCC(C(c2ccccc2)N2CCCC2)CC1 (stereo not drawn) [Example 635, N-(4-(phenyl(pyrrolidin-1-yl)methyl)cyclohexyl)-2-(1-(2,4,6-trichlorophenylsulfonyl)pyrrolidin-3-yloxy)acetamide]	67%	78%	22%		
CN(CCOCC(=O)NC1CCC(C(CCc2ccccc2)N2CCOCC2)CC1)S(=O)(=O)c1c(Cl)cc(Cl)cc1Cl (stereo not drawn) [Example 636, N-(4-(1-morpholino-3-phenylpropyl)cyclohexyl)-2-(2-(2,4,6-trichloro-N-methylphenylsulfonamido)ethoxy)acetamide]	41%	8%	16%		
CN(CCOCC(=O)NC1CCC(C(CCc2ccccc2)N2CCCCC2)CC1)S(=O)(=O)c1c(Cl)cc(Cl)cc1Cl (stereo not drawn) [Example 637, N-(4-(3-phenyl-1-(piperidin-1-yl)propyl)cyclohexyl)-2-(2-(2,4,6-trichloro-N-methylphenylsulfonamido)ethoxy)acetamide]	85%	35%	45%		
CN(CCOCC(=O)NC1CCC(C(c2ccccc2)N2CCOCC2)CC1)S(=O)(=O)c1c(Cl)cc(Cl)cc1Cl (stereo not drawn) [Example 638, N-(4-(morpholino(phenyl)methyl)cyclohexyl)-2-(2-(2,4,6-trichloro-N-methylphenylsulfonamido)ethoxy)acetamide]		2%		37%	21%
CN(CCOCC(=O)NCC1CCC(C(c2ccccc2)N2CCOCC2)CC1)S(=O)(=O)c1c(Cl)cc(Cl)cc1Cl (stereo not drawn) [Example 639, N-((4-(morpholino(phenyl)methyl)cyclohexyl)methyl)-2-(2-(2,4,6-trichloro-N-methylphenylsulfonamido)ethoxy)acetamide]	53%	3%	41%		
CN(CCOCC(=O)NCC1CCC(C(CCc2ccccc2)N2CCCC2)CC1)S(=O)(=O)c1c(Cl)cc(Cl)cc1Cl (stereo not drawn) [Example 640, N-((4-(3-phenyl-1-(pyrrolidin-1-yl)propyl)cyclohexyl)methyl)-2-(2-(2,4,6-trichloro-N-methylphenylsulfonamido)ethoxy)acetamide]	101%	27%	63%		
CN(CCOCC(=O)NCC1CCC(C(c2ccccc2)N2CCCC2)CC1)S(=O)(=O)c1ccc(Cl)cc1Cl (stereo not drawn) [Example 641, 2-(2-(2,4-dichloro-N-methylphenylsulfonamido)ethoxy)-N-((4-(phenyl(pyrrolidin-1-yl)methyl)cyclohexyl)methyl)acetamide]	96%	66%	45%		
COc1cc(C)c(S(=O)(=O)N(C)CCOCC(=O)NCC2CCC(C(c3ccccc3)N3CCCC3)CC2)c(C)c1 (stereo not drawn) [Example 642, 2-(2-(4-methoxy-N,2,6-trimethylphenylsulfonamido)ethoxy)-N-((4-(phenyl(pyrrolidin-1-yl)methyl)cyclohexyl)methyl)acetamide]	105%	54%	105%		
CN(CCOCC(=O)NCC1CCC(C(c2ccccc2)N2CCCC2)CC1)S(=O)(=O)c1c(Cl)cccc1Cl (stereo not drawn) [Example 643, 2-(2-(2,6-dichloro-N-methylphenylsulfonamido)ethoxy)-N-((4-(phenyl(pyrrolidin-1-yl)methyl)cyclohexyl)methyl)acetamide]	102%	76%	62%		
O=C(COC1CCN(S(=O)(=O)c2c(Cl)cc(Cl)cc2Cl)C1)NCC1CCC(C(c2ccccc2)N2CCCC2)CC1 (stereo not drawn) [Example 644, N-((4-(phenyl(pyrrolidin-1-yl)methyl)cyclohexyl)methyl)-2-(1-(2,4,6-trichlorophenylsulfonyl)pyrrolidin-3-yloxy)acetamide]	73%	59%	52%		
COc1cc(C)c(S(=O)(=O)N2CCC(OCC(=O)NCC3CCC(C(c4ccccc4)N4CCCC4)CC3)C2)c(C)c1 (stereo not drawn) [Example 645, 2-(1-(4-methoxy-2,6-dimethylphenylsulfonyl)pyrrolidin-3-yloxy)-N-((4-(phenyl(pyrrolidin-1-yl)methyl)cyclohexyl)methyl)acetamide]	101%	38%	100%		
CN(CCOCC(=O)NCC1CCC(C(c2ccccc2)N2CCCC2)CC1)S(=O)(=O)c1c(Cl)cc(C(F)(F)F)cc1Cl (stereo not drawn) [Example 646, 2-(2-(2,6-dichloro-N-methyl-4-(trifluoromethyl)phenylsulfonamido)ethoxy)-N-((4-(phenyl(pyrrolidin-1-yl)methyl)cyclohexyl)methyl)acetamide]	60%	49%	15%		
COc1cc(C)c(S(=O)(=O)N2CCCC(OCC(=O)NC3CCC(C(c4ccccc4)N4CCCC4)CC3)C2)c(C)c1 (stereo not drawn) [Example 647, 2-(1-(4-methoxy-2,6-dimethylphenylsulfonyl)piperidin-3-yloxy)-N-(4-(phenyl(pyrrolidin-1-yl)methyl)cyclohexyl)acetamide]	92%	49%	94%		
COc1cc(C)c(S(=O)(=O)N2CCCC(OCC(=O)NCC3CCC(C(c4ccccc4)N4CCCC4)CC3)C2)c(C)c1 (stereo not drawn) [Example 648, 2-(1-(4-methoxy-2,6-dimethylphenylsulfonyl)piperidin-3-yloxy)-N-((4-(phenyl(pyrrolidin-1-yl)methyl)cyclohexyl)methyl)acetamide]	95%	95%	98%		
COc1cc(C)c(S(=O)(=O)N2CCCC2COCC(=O)NCC2CCC(C(c3ccccc3)N3CCCC3)CC2)c(C)c1 (stereo not drawn) [Example 649, 2-((1-(4-methoxy-2,6-dimethylphenylsulfonyl)pyrrolidin-2-yl)methoxy)-N-((4-(phenyl(pyrrolidin-1-yl)methyl)cyclohexyl)methyl)acetamide]	105%	67%	106%		
O=C(COCC1CCCN1S(=O)(=O)c1c(Cl)cc(Cl)cc1Cl)NC1CCC(C(c2ccccc2)N2CCCC2)CC1 (stereo not drawn) [Example 650, N-(4-(phenyl(pyrrolidin-1-yl)methyl)cyclohexyl)-2-((1-(2,4,6-trichlorophenylsulfonyl)pyrrolidin-2-yl)methoxy)acetamide]	96%	92%	99%		
O=C(COCC1CCCN1S(=O)(=O)c1c(Cl)cc(Cl)cc1Cl)NCC1CCC(C(c2ccccc2)N2CCCC2)CC1 (stereo not drawn) [Example 651, N-((4-(phenyl(pyrrolidin-1-yl)methyl)cyclohexyl)methyl)-2-((1-(2,4,6-trichlorophenylsulfonyl)pyrrolidin-2-yl)methoxy)acetamide]	103%	83%	105%		
COc1cc(C)c(S(=O)(=O)N2CCCCC2COCC(=O)NC2CCC(C(c3ccccc3)N3CCCC3)CC2)c(C)c1 (stereo not drawn) [Example 652, 2-((1-(4-methoxy-2,6-dimethylphenylsulfonyl)piperidin-2-yl)methoxy)-N-(4-(phenyl(pyrrolidin-1-yl)methyl)cyclohexyl)acetamide]	101%	70%	105%		
O=C(COCC1CCCCN1S(=O)(=O)c1c(Cl)cc(Cl)cc1Cl)NC1CCC(C(c2ccccc2)N2CCCC2)CC1 (stereo not drawn) [Example 653, N-(4-(phenyl(pyrrolidin-1-yl)methyl)cyclohexyl)-2-((1-(2,4,6-trichlorophenylsulfonyl)piperidin-2-yl)methoxy)acetamide]	101%	94%	95%		
